Data taken from patent US20150094354A1, “METHOD FOR TREATING CELL PROLIFERATIVE DISORDER BY INHIBITING C1GALT1 EXPRESSION” (National Taiwan University, priority 2013, published 2015).

What was measured:
Assay type in all cases: cell-based, human
HA22T cells = assay: Trypan blue exclusion cell viability assay; settings: up to 72 hours
Protocol: Cells (4×10^4) are seeded in each well of 6-well plates with DMEM containing 10% FBS. Viable cells are analyzed by Trypan blue exclusion assay at 0, 24, 48, and 72 hours. Cell proliferation is evaluated by immunostaining with anti-Ki67 antibody (1:1000; Vector Laboratories). For cell-cycle analysis, 1×10^6 cells are stained with propidium iodide (Sigma) for 30 minutes. The percentages of cells in G1, S, and G2M phases are analyzed by flow cytometry (Becton Dickinson).
FIGS. 9A-9B are schematic diagrams illustrating the effects of C1GALT1 on the cell viability of hepatocellular carcinoma cells in vitro in accordance with an embodiment of the present invention. Cell viability of HA22T, PLC5, Sk-Hep1, and HCC36 cells was analyzed by Trypan blue exclusion assays at different time points for 72 hours. The results were standardized by the cell number at 0 hour. Data are represented as means±SD from three independent experiments. *, P<0.05; **, P<0.01.

C1GALT1 = assay: Knockdown of C1GALT1 expression confirmed by Western blotting / Q-PCR; settings: siRNA
Source text: According to an embodiment of the present invention, in the experiment in vitro, two siRNA oligonucleotides against C1GALT1, 5′-[…] GG-3′ (SEQ ID NO: 1) and 5′-[…]-3′ (SEQ ID NO: 2), used as the C1GALT1 inhibition substance and a negative control siRNA of medium GC are synthesized by Invitrogen company.
According to another embodiment of the present invention, in the experiment in vivo, the pLKO/C1GALT1-shRNA plasmid containing the sequence, 5′-CCCAGCCTAATG TTCTTCATA-3′(SEQ ID NO: 13), against C1GALT1 is used as the C1GALT1 inhibition substance. The pLKO/C1GALT1-shRNA plasmid and non-targeting pLKO plasmids (as a negative control) are purchased from National RNAi Core Facility (Academia Sinica, Taipei, Taiwan). The short hairpin RNA (shRNA, 20 nM) plasmids are transfected with Lipofectamine® 2000 and selected with 500 ng/mL of puromycin for 10 days. […] Subsequently, 7×10^6 of hepatocellular carcinoma cells containing the pLKO/C1GALT1-shRNA plasmid and the non-targeting pLKO plasmid are subcutaneously injected into severe combined immunodeficient (SCID) mice (n=4 for each group). Tumor volumes are monitored for […]. Excised tumors are weighed and lysed for Western blotting and immunohistochemistry.
Equal amounts of protein samples are mixed with 5× sample buffer and boiled for 5 minutes, separated on SDS-polyacrylamide gels, and then transferred to PVDF membrane. The membranes are blocked in 5% BSA for 1 hour at room temperature, and incubated with primary antibodies overnight at 4° C. Anti-phosphotyrosine (4G10) antibody (Millipore, Billerica, Mass.), antibodies against C1GALT1, GAPDH, IGF-IR, MET pY 1234/5, IGF-IR pY1135/1136, p-AKT, p-ERK1/2, and ERK1/2 antibody (BD Pharmingen, San Jose, Calif.) are used. The blots are then incubated with secondary antibody conjugated with horseradish peroxidase and immunoreacted bands are detected by ECL reagents and exposed on x-ray film.
Total RNA is isolated using TRIzol reagent (Invitrogen) according to the manufacturer's protocol. Two micrograms of total RNA is used in reverse transcription reaction using the Superscript III First-Strand cDNA Synthesis Kit (Invitrogen). The cDNA is subjected to quantitative real-time RT-PCR (Q-PCR). Quantitative PCR System Mx3000P (Stratagene, La Jolla, Calif.) is used for quantitative real-time RT-PCR. Reactions are performed in a 20 μl volume with 2 μl cDNA, 400 nM of sense and anti-sense primers, and 10 μl Brilliant®SYBR®Green Q-PCR Master Mix (Stratagene). Primer sets are designed as the following: Primers for C1GALT1 are 5′-[…]-3′ (SEQ ID NO: 5) and 5′-[…]-3′(SEQ ID NO: 6). Primers for GAPDH are 5 ‘-[…]-3’ (SEQ ID NO: 8) and 5′-[…]-3′ (SEQ ID NO: 7). The relative quantity of gene expression normalized to GAPDH is analyzed using MxPro Software (Stratagene). […]

[1] = test system: O-glycans on glycoproteins; assay: Western blotting with biotinylated VVA of glycoproteins in hepatocellular carcinoma cells
Protocol: Vicia villosa agglutinin (VVA)- and peanut agglutinin (PNA) lectin-conjugated agarose beads, fluorescein isothiocyanate (FITC)-, and biotinylated VVA were purchased from Vector Laboratories. Recombinant EGF, HGF, IGF-I, and protein deglycosylation kits were purchased from Sigma. Protein deglycosylation is carried out using an Enzymatic Protein Deglycosylation Kit (Sigma). Briefly, cell lysates are treated with neuraminidase or PNGase F at 37° C. for 1 hour. For lectin blotting, […] of cell lysate is separated by an 8% SDS-PAGE, transferred to polyvinylidene difluoride membrane (Millipore), and blotted with biotinylated VVA (1:10,000). For lectin pull-down assay, cell lysates (0.3 mg) are incubated with or without deglycosylation enzymes and then applied to VVA- or PNA-conjugated agarose beads at 4° C. for 16 hours. The pulled down proteins are analyzed by Western blotting.
HA22T and PLC5 cells express high levels of C1GALT1, while Sk-Hep1 and HCC36 cells express low levels of C1GALT1, as shown in FIG. 6B. […] Compared with pcDNA3.1 empty plasmid (mock), overexpression of C1GALT1 in Sk-Hep1 and HCC36 cells transfected with C1GALT1/pcDNA3.1 plasmid (C1GALT1) is shown in FIG. 7B Immunofluorescence microscopy further confirmed the knockdown and overexpression of C1GALT1 in hepatocellular carcinoma cells and its subcellular localization in the Golgi apparatus (not shown). […] Proteins with evident changes in VVA binding are indicated by arrows. p140 changes in all tested cell lines are indicated by red arrows.

C1GALT1 si-1: siRNA oligonucleotide against C1GALT1, presumably SEQ ID NO: 1, UUAGUAUACGUUCAGGUAAGGUAGG (chemistry not given here)
cell viability (HA22T cells): significantly suppressed
C1GALT1 expression (C1GALT1; HA22T cells): knockdown of C1GALT1
C1GALT1 expression (C1GALT1; PLC5 cells): knockdown of C1GALT1
binding of VVA to glycoproteins ([1]; HA22T cells): enhanced
binding of VVA to glycoproteins ([1]; PLC5 cells): enhanced

C1GALT1 si-2: siRNA oligonucleotide against C1GALT1, presumably SEQ ID NO: 2, UUAUGUUGGCUAGAAUCUGCAUUGA (chemistry not given here)
cell viability (HA22T cells): significantly suppressed
C1GALT1 expression (C1GALT1; HA22T cells): knockdown of C1GALT1
C1GALT1 expression (C1GALT1; PLC5 cells): knockdown of C1GALT1
binding of VVA to glycoproteins ([1]; HA22T cells): enhanced
binding of VVA to glycoproteins ([1]; PLC5 cells): enhanced
